Experimental findings from the supplement of paper PMC10307832 are described below.

Common to all, as to assay: relative viability (nuclei count vs DMSO), 5 days (fraction); higher = more cells survive
Compound in assay [1]: C[As](C)SC[C@H](NC(=O)CC[C@H](N)C(=O)O)C(=O)NCC(=O)O [Darinaparsin] + Nc1ncn([C@H]2C[C@H](O)[C@@H](CO)O2)c(=O)n1 [Decitabine] (partner 2 µM)
A digest of the protocol: (§1)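 The day after seeding in 1536-well plates, lung cancer cell lines were treated by pin tool with a single drug, or with a fixed anchor-drug dose together with five library-drug doses (not always all listed) in √10 steps. After 5 days, a combined fix-and-stain solution (final 0.05% Triton X-100, 1% formaldehyde, 1 ug/ml Hoechst) was added. Nuclei counted on 4× images gave relative viability as treated counts over vehicle counts, reported as the median of duplicate plates.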

Compound in the assay “AZ628 + Foretinib”: CC1=C(C=C(C=C1)NC(=O)C2=CC(=CC=C2)C(C)(C)C#N)NC3=CC4=C(C=C3)N=CN(C4=O)C [AZ628] + COc1cc2c(Oc3ccc(NC(=O)C4(C(=O)Nc5ccc(F)cc5)CC4)cc3F)ccnc2cc1OCCCN1CCOCC1 [Foretinib] (partner 0.25 µM)
A digest of the protocol:
as §1

Compound in the assay “AZ628 + Palbociclib”: CC1=C(C=C(C=C1)NC(=O)C2=CC(=CC=C2)C(C)(C)C#N)NC3=CC4=C(C=C3)N=CN(C4=O)C [AZ628] + CC(=O)c1c(C)c2cnc(Nc3ccc(N4CCNCC4)cn3)nc2n(C2CCCC2)c1=O [Palbociclib] (partner 0.5 µM)
A digest of the protocol:
as §1

Compound in the assay “QS11 + Olaparib”: C1CC2=C(C1)C=C(C=C2)OC3=NC(=C4C(=N3)N(C=N4)CC5=CC=C(C=C5)C6=CC=CC=C6)N[C@@H](CC7=CC=CC=C7)CO [QS11] + O=C(c1cc(Cc2n[nH]c(=O)c3ccccc23)ccc1F)N1CCN(C(=O)C2CC2)CC1 [Olaparib] (partner 8 µM)
A digest of the protocol:
as §1

SW 900: the relative viability in assay [1] (first compound 0.08 µM) is 0.44; in assay [1] (first compound 2.53 µM) it was 0.404; in assay [1] (first compound 8 µM), 0.462; with AZ628 + Foretinib (first compound 0.08 µM), 0.931; with AZ628 + Foretinib (first compound 0.253 µM) it was 0.874; with AZ628 + Foretinib (first compound 0.8 µM), 0.971. Besides, the relative viability worked out at 0.685 in the assay with AZ628 + Foretinib (first compound 2.53 µM); 0.619 with AZ628 + Foretinib (first compound 8 µM); 0.595 in the assay with AZ628 + Palbociclib (first compound 0.08 µM); 0.542 with AZ628 + Palbociclib (first compound 0.253 µM); 0.537 in the assay with AZ628 + Palbociclib (first compound 0.8 µM); 0.555 in the assay with AZ628 + Palbociclib (first compound 2.53 µM). In addition, the relative viability in the assay with AZ628 + Palbociclib (first compound 8 µM) turned out to be 0.497; in the assay with QS11 + Olaparib (first compound 0.08 µM) it was 0.941; with QS11 + Olaparib (first compound 0.253 µM), 1.03; with QS11 + Olaparib (first compound 0.8 µM) it was 0.615; in the assay with QS11 + Olaparib (first compound 2.53 µM), 0.739; with QS11 + Olaparib (first compound 8 µM), 0.511.

Regarding HCC-15, the relative viability in assay [1] (first compound 0.08 µM) is 0.727; in assay [1] (first compound 0.8 µM), 0.565; in assay [1] (first compound 2.53 µM), 0.643; in assay [1] (first compound 8 µM), 0.722; with AZ628 + Foretinib (first compound 0.08 µM), 1.08; in the assay with AZ628 + Foretinib (first compound 0.253 µM), 0.984. Further, the relative viability in the assay with AZ628 + Foretinib (first compound 0.8 µM) was determined as 0.871; with AZ628 + Foretinib (first compound 2.53 µM) it was 0.868; with AZ628 + Foretinib (first compound 8 µM) it was 0.467; with AZ628 + Palbociclib (first compound 0.08 µM) it was 0.708; with AZ628 + Palbociclib (first compound 0.253 µM) it was 0.718; with AZ628 + Palbociclib (first compound 0.8 µM), 0.656. Further, the relative viability in the assay with AZ628 + Palbociclib (first compound 2.53 µM) amounted to 0.677; with AZ628 + Palbociclib (first compound 8 µM) it was 0.421; with QS11 + Olaparib (first compound 0.08 µM) it was 0.668; with QS11 + Olaparib (first compound 0.253 µM), 0.79; with QS11 + Olaparib (first compound 0.8 µM) it was 0.61; in the assay with QS11 + Olaparib (first compound 2.53 µM) it was 0.735. The relative viability in the assay with QS11 + Olaparib (first compound 8 µM) was 0.634.

Turning to COR-L 105, the relative viability in assay [1] (first compound 0.08 µM) stood at 0.642; in assay [1] (first compound 0.8 µM), 0.711; in assay [1] (first compound 2.53 µM) it was 0.621; in assay [1] (first compound 8 µM), 0.666; with AZ628 + Foretinib (first compound 0.08 µM), 1.47; with AZ628 + Foretinib (first compound 0.253 µM), 0.95. Also, the relative viability with AZ628 + Foretinib (first compound 0.8 µM) is 1.19; in the assay with AZ628 + Foretinib (first compound 2.53 µM), 1.11; in the assay with AZ628 + Foretinib (first compound 8 µM) it was 0.669; with AZ628 + Palbociclib (first compound 0.08 µM), 0.368; with AZ628 + Palbociclib (first compound 0.253 µM), 0.368; in the assay with AZ628 + Palbociclib (first compound 0.8 µM) it was 0.429. For the same cell line, the relative viability with AZ628 + Palbociclib (first compound 2.53 µM) came to 0.344; with AZ628 + Palbociclib (first compound 8 µM), 0.453; with QS11 + Olaparib (first compound 0.08 µM), 0.764; in the assay with QS11 + Olaparib (first compound 0.253 µM), 0.56; with QS11 + Olaparib (first compound 0.8 µM), 0.674; with QS11 + Olaparib (first compound 2.53 µM), 0.716. Also, the relative viability with QS11 + Olaparib (first compound 8 µM) came out at 0.66.

As for NCI-H1915, the relative viability in assay [1] (first compound 0.08 µM) came to 0.288; in assay [1] (first compound 0.8 µM), 0.239; in assay [1] (first compound 2.53 µM) it was 0.254; in assay [1] (first compound 8 µM) it was 0.256; in the assay with AZ628 + Foretinib (first compound 0.08 µM) it was 1.23; with AZ628 + Foretinib (first compound 0.253 µM), 1.1. Also, the relative viability in the assay with AZ628 + Foretinib (first compound 0.8 µM) was 0.987; with AZ628 + Foretinib (first compound 2.53 µM), 0.89; in the assay with AZ628 + Foretinib (first compound 8 µM), 0.59; with AZ628 + Palbociclib (first compound 0.08 µM), 0.398; in the assay with AZ628 + Palbociclib (first compound 0.253 µM), 0.392; with AZ628 + Palbociclib (first compound 0.8 µM) it was 0.316. In addition, the relative viability in the assay with AZ628 + Palbociclib (first compound 2.53 µM) is 0.316; in the assay with AZ628 + Palbociclib (first compound 8 µM), 0.205; in the assay with QS11 + Olaparib (first compound 0.08 µM), 0.227; with QS11 + Olaparib (first compound 0.253 µM), 0.25; in the assay with QS11 + Olaparib (first compound 2.53 µM) it was 0.259; with QS11 + Olaparib (first compound 8 µM) it was 0.275.

For NCI-H2347, the relative viability in assay [1] (first compound 0.08 µM) turned out to be 0.667; in assay [1] (first compound 0.8 µM) it was 0.632; in assay [1] (first compound 2.53 µM), 0.733; in assay [1] (first compound 8 µM), 0.697; in the assay with AZ628 + Foretinib (first compound 0.08 µM), 0.697; with AZ628 + Foretinib (first compound 0.253 µM), 0.81. Moreover, the relative viability with AZ628 + Foretinib (first compound 0.8 µM) is 0.704; with AZ628 + Foretinib (first compound 2.53 µM) it was 0.976; with AZ628 + Foretinib (first compound 8 µM) it was 0.407; with AZ628 + Palbociclib (first compound 0.08 µM) it was 0.468; with AZ628 + Palbociclib (first compound 0.253 µM), 0.352; with AZ628 + Palbociclib (first compound 0.8 µM), 0.266. For the same cell line, the relative viability with AZ628 + Palbociclib (first compound 2.53 µM) was determined as 0.403; in the assay with AZ628 + Palbociclib (first compound 8 µM), 0.344; in the assay with QS11 + Olaparib (first compound 0.08 µM), 0.55; in the assay with QS11 + Olaparib (first compound 0.253 µM) it was 0.541; in the assay with QS11 + Olaparib (first compound 0.8 µM), 0.544; with QS11 + Olaparib (first compound 2.53 µM) it was 0.519. Moreover, the relative viability in the assay with QS11 + Olaparib (first compound 8 µM) was found to be 0.683.

Regarding EKVX, the relative viability in assay [1] (first compound 0.08 µM) is 0.339; in assay [1] (first compound 0.8 µM), 0.323; in assay [1] (first compound 2.53 µM) it was 0.382; in assay [1] (first compound 8 µM), 0.314; in the assay with AZ628 + Foretinib (first compound 0.08 µM), 0.724; in the assay with AZ628 + Foretinib (first compound 0.253 µM), 0.609. Further, the relative viability came to 0.721 with AZ628 + Foretinib (first compound 0.8 µM); 0.847 with AZ628 + Foretinib (first compound 2.53 µM); 0.564 with AZ628 + Foretinib (first compound 8 µM); 0.393 with AZ628 + Palbociclib (first compound 0.08 µM); 0.374 in the assay with AZ628 + Palbociclib (first compound 0.253 µM); 0.478 with AZ628 + Palbociclib (first compound 0.8 µM). In addition, the relative viability with AZ628 + Palbociclib (first compound 2.53 µM) worked out at 0.452; with AZ628 + Palbociclib (first compound 8 µM) it was 0.3; in the assay with QS11 + Olaparib (first compound 0.08 µM), 0.829; with QS11 + Olaparib (first compound 0.253 µM) it was 0.768; with QS11 + Olaparib (first compound 0.8 µM) it was 0.715; with QS11 + Olaparib (first compound 2.53 µM), 0.822. Further, in the assay with QS11 + Olaparib (first compound 8 µM), the relative viability was 1.01.

Regarding LC-2-ad, the relative viability stood at 0.905 in assay [1] (first compound 0.08 µM); 0.838 in assay [1] (first compound 0.8 µM); 0.786 in assay [1] (first compound 2.53 µM); 0.899 in assay [1] (first compound 8 µM); 1.02 in the assay with AZ628 + Foretinib (first compound 0.08 µM); 1.06 with AZ628 + Foretinib (first compound 0.253 µM). For the same cell line, the relative viability in the assay with AZ628 + Foretinib (first compound 0.8 µM) was 0.947; in the assay with AZ628 + Foretinib (first compound 2.53 µM) it was 0.978; with AZ628 + Foretinib (first compound 8 µM), 0.863; in the assay with AZ628 + Palbociclib (first compound 0.08 µM), 0.473; with AZ628 + Palbociclib (first compound 0.253 µM), 0.51; with AZ628 + Palbociclib (first compound 0.8 µM) it was 0.424. Moreover, the relative viability was 0.468 with AZ628 + Palbociclib (first compound 2.53 µM); 0.373 in the assay with AZ628 + Palbociclib (first compound 8 µM); 0.668 with QS11 + Olaparib (first compound 0.08 µM); 0.719 in the assay with QS11 + Olaparib (first compound 0.253 µM); 0.551 in the assay with QS11 + Olaparib (first compound 0.8 µM); 0.706 in the assay with QS11 + Olaparib (first compound 2.53 µM). Also, the relative viability in the assay with QS11 + Olaparib (first compound 8 µM) amounted to 0.781.
